We go through 1 compound from article PMC6588349 (eLife, 2019).

Structures are written as SMILES. Like-named read-outs stand apart in the source and are kept apart here.

One test concerns the target T1, SNAP-mGluR2 (Rattus norvegicus, UniProt P31421).
T1 construct: HEK 293T cells expressing full-length mGluR2; expressed in transfected cells; host or cells: HEK 293T
The experiment in a line: Single-molecule pulldown (SiMPull) photobleaching step counting, full-length SNAP-mGluR2. As to conditions: 1 mM glutamate and 10 µM LY48. On the procedure:
To restrict our analysis to surface-targeted receptors, we expressed N-terminally SNAP-tagged receptor variants and labeled them with membrane-impermeable fluorophores.
To test this, we incubated SNAP-mGluR2-TMD expressing cells and lysates with PAMs or NAMs during the SiMPull experiment.
Briefly, to prevent non-specific sticking of proteins, flow chambers were prepared with mPEG-passivated glass slides and coverslips doped with ~1% biotinylated mPEG, as previously described. Prior to each experiment, chambers were incubated with 0.2 mg/mL NeutrAvidin (ThermoFisher) for 2 min followed by 10 nM of a biotinylated anti-HA antibody (abcam ab26228) for 20–30 min. After each conjugation step, the chambers were washed with T50 buffer (50 mM NaCl, 10 mM Tris, pH 7.5).
After labeling, cells were dissociated from coverslips by incubating with Ca^2+-free PBS for 20 min followed by gentle pipetting. […] Following 1 hr of lysis at 4°C, cells were centrifuged at 16,000 g for 20 min before the supernatant was collected and maintained on ice. The cell lysate was diluted in a 0.1% detergent dilution buffer to obtain sparse immobilization of labeled protein on the passivated slide. […]
Single molecules were imaged with a 100x objective on an inverted microscope (Olympus IX73) in total internal reflection fluorescence (TIRF) mode. […]

A further test concerns the target T2, mGluR2-N735D (Rattus norvegicus, UniProt P31421, N735D).
T2 construct: expressed in transfected cells; host or cells: HEK 293T
Briefly: GIRK activation assay, whole cell patch clamp, mGluR2-N735D. In kind it is cell-based. Conditions: relative to wild-type / saturating glutamate. How it is done:
(§1) Whole-cell patch clamp recordings from single isolated cells were performed 24–36 hr after transfection in a high-potassium extracellular solution containing (in mM): 120 KCl, 29 NaCl, 1 MgCl2, 2 CaCl2 and 10 HEPES, pH 7.4. Cells were voltage clamped to −60 mV using an Axopatch 200B amplifier (Axon Instruments) and membrane currents were recorded. Glass pipettes of resistance between 3 and 8 MΩ were filled with intracellular solution containing (in mM): 140 KCl, 10 HEPES, 3 Na2ATP, 0.2 Na2GTP, 5 EGTA and 3 MgCl2, pH 7.4. Data were acquired with a 2 kHz acquisition rate and filtered with the amplifier 4-pole Bessel filter at 1 kHz. Drugs were prepared in extracellular solution and applied using a gravity-driven perfusion system. Data were analyzed with Clampfit (Molecular Devices) and Prism (GraphPad). Data for all conditions came from at least two separate transfections.
Background: In patch-clamp work, channel activity is measured electrically.

A further test has as its target T3, SNAP-mGluR2-R57A (Rattus norvegicus, UniProt P31421, R57A).
T3 construct: expressed in transfected cells; host or cells: HEK 293T
Briefly: GIRK activation assay, whole cell patch clamp, SNAP-mGluR2-R57A. It counts as cell-based. On the procedure: (§2) Cells were cultured in DMEM with 5% FBS on poly-L-lysine-coated glass coverslips. DNA plasmids were transfected into cells using Lipofectamine 3000 (Thermo Fisher). […] For single-molecule pulldown (SiMPull) experiments, cells were transfected with 0.7 μg DNA of HA and SNAP-tagged receptor constructs, unless otherwise noted. For FRET experiments, cells were transfected with either SNAP-tagged constructs at 0.5–0.7 μg of DNA/well or SNAP and CLIP-tagged constructs at a ratio of 1:2 with 0.3 μg of SNAP DNA/well.
as §1

Test [1] relates to SNAP-mGluR2-TMD-N735D. The experiment in a line: Inter-TMD FRET assay, N735D mutant. Conditions: N735D compared to wild-type receptor. In kind it is cell-based, Rattus norvegicus. On the procedure: (§3) Fluorophores were diluted in EX solution, which was also used to wash coverslips following labeling and prior to mounting on the microscope. After labeling, cells were mounted on an inverted microscope (Olympus IX73) and imaged with a 60x objective. […] Clusters of cells were analyzed together using ImageJ and FRET was calculated as FRET=(IAcceptor)/(IDonor +IAcceptor) where I is fluorescence intensity. No corrections were made for bleed-through between channels or the contribution of donor-donor or acceptor-acceptor dimers as analysis was limited to relative FRET changes between drug treatments rather than absolute FRET values. […] FRET changes calculated for dose–response curves were normalized to the response to saturating […] applied within the same recording and dose–response curves were obtained from multiple cell clusters and averaged from at least three separate experiments. Dose–response curves were fit using Prism (Graphpad). All drugs were purchased from Tocris, prepared in EX solution, and delivered with a gravity-driven perfusion system. For kinetics measurements a pressurized perfusion system (Automate Scientific) was used to produce a flow rate of 0.5 mL/s. Kinetic analysis was performed in Microsoft Excel. The time between 10% and 90% FRET increase or decrease was determined manually. […]

In test [2] the target is T4, SNAP-mGluR2-TMD-N735D (Rattus norvegicus, UniProt P31421, N735D).
T4 construct: Following SNAP tag, mGluR2 truncatd to position Q558; N at position 735 replaced with D; expressed in transfected cells; host or cells: HEK 293T
Briefly: Inter-TMD FRET assay, N735D mutant. As to conditions: SNAP-mGluR2-TMD-N735D; normalized to saturating LY48; read-out: inter-TMD FRET increase EC50, N735D. In kind it is cell-based. On the procedure:
as §3

Another test has as its target T5, full-length mGluR2 (Rattus norvegicus, UniProt P31421).
T5 construct: HEK 293T cells expressing full-length mGluR2; expressed in transfected cells; host or cells: HEK 293T
The experiment in a line: Calcium imaging assay, HEK cells with full-length mGluR2, GCaMP6f and Gαiq chimera. It counts as cell-based. How it is done: as §2
Experiments were conducted with continuous gravity-driven perfusion on an inverted microscope (Olympus IX73) and imaged with a 20x objective. […] Regions of interest were selected in Olympus cellSens software and represent single cells or small cell clusters (2–3 cells). Data analysis was performed in Microsoft Excel, where intensities were normalized to the baseline prior to drug application. Dose–response curves were fit using Prism (Graphpad) and data comes from at least two independent experiments for each LY48 concentration.

T3 sequence (P31421 19-872 R57A): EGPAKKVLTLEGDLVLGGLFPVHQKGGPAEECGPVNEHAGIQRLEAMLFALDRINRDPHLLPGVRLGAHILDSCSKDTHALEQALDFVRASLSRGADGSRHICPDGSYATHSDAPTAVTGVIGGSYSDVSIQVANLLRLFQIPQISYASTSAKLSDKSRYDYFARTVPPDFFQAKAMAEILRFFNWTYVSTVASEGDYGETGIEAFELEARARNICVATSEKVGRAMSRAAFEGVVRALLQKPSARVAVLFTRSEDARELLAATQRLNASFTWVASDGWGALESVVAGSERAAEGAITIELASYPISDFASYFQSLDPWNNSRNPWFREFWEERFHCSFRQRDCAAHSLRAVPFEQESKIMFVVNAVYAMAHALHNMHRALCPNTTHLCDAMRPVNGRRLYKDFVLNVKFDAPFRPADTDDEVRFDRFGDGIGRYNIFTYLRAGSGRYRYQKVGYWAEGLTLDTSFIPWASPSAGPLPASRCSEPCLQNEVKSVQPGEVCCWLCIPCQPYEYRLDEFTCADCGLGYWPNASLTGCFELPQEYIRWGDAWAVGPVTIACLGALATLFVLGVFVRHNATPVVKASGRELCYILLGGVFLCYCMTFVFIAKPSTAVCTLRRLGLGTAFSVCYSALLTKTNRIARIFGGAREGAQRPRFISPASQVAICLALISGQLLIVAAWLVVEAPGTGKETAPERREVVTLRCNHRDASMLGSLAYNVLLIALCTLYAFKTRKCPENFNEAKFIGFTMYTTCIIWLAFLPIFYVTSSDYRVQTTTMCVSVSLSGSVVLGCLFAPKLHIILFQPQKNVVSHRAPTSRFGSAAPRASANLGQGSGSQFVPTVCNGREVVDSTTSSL
T2 sequence (P31421 19-872 N735D): as the sequence (P31421 19-872 R57A) above, with A39R, N717D counted along it
T4 sequence (P31421 558-872 N735D): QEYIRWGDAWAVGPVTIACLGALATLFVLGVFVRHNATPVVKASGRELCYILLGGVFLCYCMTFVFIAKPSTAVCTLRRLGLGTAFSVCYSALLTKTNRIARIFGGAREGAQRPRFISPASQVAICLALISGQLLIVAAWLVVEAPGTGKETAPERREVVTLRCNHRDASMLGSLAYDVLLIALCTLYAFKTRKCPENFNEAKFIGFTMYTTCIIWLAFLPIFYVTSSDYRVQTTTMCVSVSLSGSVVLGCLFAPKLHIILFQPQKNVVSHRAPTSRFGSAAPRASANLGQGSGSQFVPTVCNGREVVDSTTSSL
T1 sequence (P31421 19-872): as the sequence (P31421 19-872 R57A) above, with A39R counted along it
T5 sequence (P31421 19-872): as the sequence (P31421 19-872 R57A) above, with A39R counted along it

By EC50 is commonly meant the concentration giving half of the maximal effect. Take `COc1ccccc1Oc1ccc(N(Cc2cccnc2)S(=O)(=O)CC(F)(F)F)cc1` [LY48]: at SNAP-mGluR2, the “two-step bleaching events of SNAP-mGluR2 with glutamate plus LY48” value is on record as ~ 60%. Moreover, on mGluR2-N735D, the “GIRK activation of mGluR2-N735D” value is reported as “drastically reduced activation”. The EC50 is 290 ± 80 nM on SNAP-mGluR2-R57A (SNAP-mGluR2-R57A, normalized to saturating glutamate, mean ± s.e.m., read-out: GIRK activation EC50); approximately 300 nM on SNAP-mGluR2-R57A (mGluR2-R57A, read-out: GIRK activation EC50 (approximate)); 20.5 ± 1.4 µM at SNAP-mGluR2-TMD-N735D [2]; 1200 ± 200 nM on full-length mGluR2. For the same compound, the “maximal PAM-induced GIRK activation relative to glutamate” value at SNAP-mGluR2-R57A (mGluR2-R57A, relative to glutamate) is recorded as ~ 70%. Further, the “rightward shift of inter-TMD FRET dose-response curve, N735D versus wild-type” value in the test with SNAP-mGluR2-TMD-N735D [1] is listed as ~ 20 fold.
